Data reported in patent US11618738B2, “Compound and application thereof in treating inflammation or inflammation-related diseases” (SICHUAN CENTER FOR TRANSLATIONAL MEDICINE OF TRADITIONAL …, priority 2017, dated 2023).
Marks after values point to notes of the source that are not given here.

Legend:
Assay type in all cases: in vivo
[1] = test system: xylene-induced ear swelling in mice; test: Xylene-induced ear swelling in mice; conditions: for Swelling rate (%): 20 minutes after xylene, mean ± SD; for ear swelling rate versus normal group (in words): the three dose groups (6.25, 12.5, 25 mg/kg)
Description: Xylene applied to the ears of mice can cause acute inflammatory swelling of the ears of the mice. The anti-inflammatory effects of the tested drugs were observed by the degree of swelling of the ears of the mice after the inflammation.
Taking Kunming mice, SPF grade, half male and half […] (18-22 g/mouse) and randomly grouping them according to body weight. The normal control group was given 0.5% CMC-Na suspension by gavage administration, and the other groups were given corresponding drugs (0.2 ml/10 g) for 3 consecutive days, once a day. 0.5 h after the last administration, 0.02 ml of xylene was applied to the right auricle of each group of mice, and the left side was not applied as a control, establishing a mouse ear swelling model. 20 minutes after the inflammation, the mice were killed by cervical dislocation. Both ears were cut along the baseline of the auricle, and the discs on the same part of the left and right ears were punched out with a punch (6 mm of diameter) and weighed.

[2] = test system: acute gouty arthritis in rats induced by sodium urate crystals; test: Foot swelling in rats with acute gouty arthritis induced by sodium urate crystals; conditions: for foot volume compared with the model group (in words): medium- and high-dose groups, 24 h and 48 h after injection of sodium urate crystals
Experimental: Injecting sodium urate crystals into the joint cavity to establish an acute gouty arthritis model. Its pathological and clinical manifestations are very similar. It is a classic method commonly used in animal experiments to study gouty arthritis. This experiment will explore the effects of UTLOH series drugs on animals with acute gouty arthritis induced by sodium urate.
SPF grade SD rats, half female and half male (200-220 g/mouse), were randomly grouped by weight. The drug was administered once a day, for 3 consecutive days. […] Rats in the normal group were injected with an equal volume of sterile saline to the back of the right ankle joint. The administration was continued after modeling, once a day for 3 consecutive days. The ankle joint and foot volume of the rats in each group were measured respectively before modeling and 2 h, 4 h, 8 h, 24 h and 48 h after modeling.

xanthine oxidase (XOD) = biological target: T1, xanthine oxidase (XOD) (Mus musculus, UniProt Q00519); test: Liver XOD activity in OA-induced hyperuricemia model mice; conditions: for XOD(U/gprot): liver homogenate, mean ± SD
T1 construct: from tissue; host or cells: liver of KM mice (homogenate supernatant)
T1 sequence (Q00519 whole entry): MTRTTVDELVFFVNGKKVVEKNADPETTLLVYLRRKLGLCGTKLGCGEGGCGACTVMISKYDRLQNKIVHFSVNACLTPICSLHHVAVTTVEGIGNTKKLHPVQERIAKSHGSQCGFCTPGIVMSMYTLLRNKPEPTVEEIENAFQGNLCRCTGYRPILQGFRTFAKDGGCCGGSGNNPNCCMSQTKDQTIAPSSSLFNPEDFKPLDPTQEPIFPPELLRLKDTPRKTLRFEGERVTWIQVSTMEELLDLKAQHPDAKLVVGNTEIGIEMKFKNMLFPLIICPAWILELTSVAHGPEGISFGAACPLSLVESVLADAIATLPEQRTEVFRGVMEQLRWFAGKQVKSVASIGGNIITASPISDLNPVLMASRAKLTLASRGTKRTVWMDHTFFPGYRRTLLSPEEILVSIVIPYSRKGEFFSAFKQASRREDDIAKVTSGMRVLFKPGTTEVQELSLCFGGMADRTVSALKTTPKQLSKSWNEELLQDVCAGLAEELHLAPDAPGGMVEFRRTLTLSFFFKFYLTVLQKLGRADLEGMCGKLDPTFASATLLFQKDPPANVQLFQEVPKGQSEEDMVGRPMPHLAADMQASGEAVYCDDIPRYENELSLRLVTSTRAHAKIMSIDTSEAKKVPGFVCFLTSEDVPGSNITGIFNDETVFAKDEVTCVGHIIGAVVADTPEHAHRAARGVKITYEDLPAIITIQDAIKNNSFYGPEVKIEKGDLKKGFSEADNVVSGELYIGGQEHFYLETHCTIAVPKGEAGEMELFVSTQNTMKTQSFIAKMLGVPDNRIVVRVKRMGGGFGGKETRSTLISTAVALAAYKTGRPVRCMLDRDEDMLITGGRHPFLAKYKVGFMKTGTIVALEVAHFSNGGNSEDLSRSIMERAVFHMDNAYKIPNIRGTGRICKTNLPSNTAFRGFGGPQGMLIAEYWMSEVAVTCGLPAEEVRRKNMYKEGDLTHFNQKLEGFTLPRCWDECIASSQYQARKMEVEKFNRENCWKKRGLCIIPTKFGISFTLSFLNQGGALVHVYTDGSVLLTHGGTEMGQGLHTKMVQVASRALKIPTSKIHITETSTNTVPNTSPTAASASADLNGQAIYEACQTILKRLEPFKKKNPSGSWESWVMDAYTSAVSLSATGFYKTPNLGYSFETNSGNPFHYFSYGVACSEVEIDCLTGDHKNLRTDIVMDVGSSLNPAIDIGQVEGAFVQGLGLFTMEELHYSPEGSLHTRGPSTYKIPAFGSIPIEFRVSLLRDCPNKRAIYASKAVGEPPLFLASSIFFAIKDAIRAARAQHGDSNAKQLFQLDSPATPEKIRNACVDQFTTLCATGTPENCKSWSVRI
Experimental: (§1) SPF grade KM mice, half female and half male (18-22 g/mouse). After the animals were adaptively fed for 3 days, they were randomly grouped by body weight. It was administered once a day for 7 consecutive days by gavage. On the 7th day, 1 hour before the gavage administration, the mice were intraperitoneally injected with a dose of 300 mg/kg of oxonic acid potassium salt. After the administration, the eyeballs were removed to take blood, and the serum was separated for testing. After decapitation, the liver was taken, weighed, cut into pieces, added with saline, homogenized, and centrifuged. Operated according to the kit instructions to determine the blood uric acid (UA) level in each group of mice; determine the xanthine oxidase (XOD) activity in the supernatant of mouse liver homogenate.

[3] = test system: OA-induced hyperuricemia model mice; test: Serum UA in oxonic acid potassium salt-induced hyperuricemia model mice; conditions: for UA: serum, oxonic acid potassium salt 300 mg/kg i.p., mean ± SD
Experimental: Oxoxazine potassium salt can directly increase blood uric acid levels in animals. In this experiment, intraperitoneal injection of oxonic acid potassium salt was used to observe the uric acid-lowering effect of UTLOH series drugs.
as §1

[4] = 6.25 mg/kg once a day for 3 days
[5] = 12.5 mg/kg once a day for 3 days
[6] = 10 mg/kg once a day, 2 h after modeling, mean ± SD
[7] = 10 mg/kg once a day, 4 h after modeling, mean ± SD
[8] = 10 mg/kg once a day, 8 h after modeling, mean ± SD
[9] = 10 mg/kg once a day, 24 h after modeling, mean ± SD
[10] = 10 mg/kg once a day, 48 h after modeling, mean ± SD
[11] = 20 mg/kg once a day, 2 h after modeling, mean ± SD
[12] = 20 mg/kg once a day, 4 h after modeling, mean ± SD
[13] = 20 mg/kg once a day, 8 h after modeling, mean ± SD
[14] = 20 mg/kg once a day, 24 h after modeling, mean ± SD
[15] = 20 mg/kg once a day, 48 h after modeling, mean ± SD
[16] = 40 mg/kg once a day, 2 h after modeling, mean ± SD
[17] = 40 mg/kg once a day, 4 h after modeling, mean ± SD
[18] = 40 mg/kg once a day, 8 h after modeling, mean ± SD
[19] = 40 mg/kg once a day, 24 h after modeling, mean ± SD
[20] = 40 mg/kg once a day, 48 h after modeling, mean ± SD
[21] = 6.25 mg/kg gavage once a day for 7 days
[22] = 12.5 mg/kg gavage once a day for 7 days

Compound	Swelling rate (%) [1, 4] [%]	Swelling rate (%) [1, 5] [%]	Swelling rate (%) ([1]; 25 mg/kg once a day for 3 days)	ear swelling rate versus normal group (in words) [1]	Foot swelling [2, 6] [mL]	Foot swelling [2, 7] [mL]	Foot swelling [2, 8] [mL]	Foot swelling [2, 9] [mL]	Foot swelling [2, 10] [mL]	Foot swelling [2, 11] [mL]	Foot swelling [2, 12] [mL]	Foot swelling [2, 13] [mL]	Foot swelling [2, 14] [mL]	Foot swelling [2, 16] [mL]	Foot swelling [2, 17] [mL]	Foot swelling [2, 18] [mL]	Foot swelling [2, 19] [mL]	Foot swelling [2, 20] [mL]	other results
Cc1cc(C(=O)Nc2ccccc2O)no1 [UTLOH-4a]	49.77 ± 22.15	50.59 ± 21.52	49.87 ± 16.44	significantly lower	0.33 ± 0.20	0.31 ± 0.10	0.29 ± 0.09	0.20 ± 0.11	0.03 ± 0.11	0.28 ± 0.13	0.3 ± 0.13	0.32 ± 0.09	0.21 ± 0.14	0.30 ± 0.13	0.36 ± 0.13	0.36 ± 0.09	0.19 ± 0.11	0.11 ± 0.09	Foot swelling (ml) [2, 15]: 0.07 ± 13*^ ml; foot volume compared with the model group (in words) ([2]; low-): significantly reduce
Cc1cc(C(=O)Nc2ccc(O)cc2O)no1 [UTLOH-4e]	53.22 ± 28.01	42.98 ± 23.60	41.29 ± 21.75	significantly lower	0.28 ± 0.09	0.34 ± 0.07	0.33 ± 0.11	0.22 ± 0.12	0.05 ± 0.07	0.18 ± 0.07	0.24 ± 0.06	0.19 ± 0.07	0.19 ± 0.12	0.20 ± 0.08	0.25 ± 0.05	0.19 ± 0.10	0.22 ± 0.07	0.09 ± 0.12	XOD(U/gprot) (xanthine oxidase (XOD); [21]): 21.55 ± 2.00 U/gprot; XOD(U/gprot) (xanthine oxidase (XOD); [22]): 22.54 ± 3.98 U/gprot; liver XOD activity of model mice (in words) (xanthine oxidase (XOD); versus model group): significantly reduce; dose dependence of ear swelling rate (in words) ([1]; the higher the dose, the lower the ear swelling rate): good dose-dependent; Foot swelling [2, 15]: 0.09 ± 0.08 mL; foot volume compared with the model group (in words) ([2]; 2 h, 4 h, 8 h): significantly reduce; UA [3, 21]: 50.07 ± 9.86 µmol/L; UA [3, 22]: 47.15 ± 13.48 µmol/L; level of uric acid in the serum of model mice (in words) ([3]; versus model group): significantly reduce
